Values of other authors, collected in PMC8018465, “Antimicrobial activities of a small molecule compound II-6s against oral streptococci” (Journal of Oral Microbiology, 2021).

Tested on: methicillin-resistant Staphylococcus aureus (MRSA)
Parameters: method as in PMID 30940910
Conditions: cited from earlier work

Q: Which “antimicrobial activity against MRSA” value does the source give for `CC(C)(Cc1ccc2ccccc2c1)NC[C@@H](O)COc1cccc(Cl)c1C#N` [NPS-2143, reference compound] here?
A: bacteriostatic activity
